Results taken from article PMC11033320, “Activation of p53 signaling and regression of breast and prostate carcinoma cells by spirooxindole-benzimidazole small molecules” (Frontiers in Pharmacology, 2024).

Experiments:
[1] = system: SK-MEL-28; assay: NCI anticancer screening, Melanoma SK-MEL-28; assay type: cell-based; settings: Homo sapiens; SK-MEL-28, 10 μM; read-out: % Growth Inhibition (GI %)
Text: (§1) The compound has been processed according to standard method NCI-60 Human Tumor Cell Lines Screen for organic compound at development therapeutic program (DTP). Requests for access to this national resource can be submitted online at: […]

[2] = system: HL-60(TB); assay: NCI anticancer screening, Leukemia HL-60(TB); assay type: cell-based; settings: Homo sapiens, read-out: % Growth Inhibition (GI %)
Text: as §1

[3] = system: PC-3 cells; assay: MTT assay anticancer activity, PC-3; assay type: cell-based; settings: Homo sapiens, PC-3, 5 µM, mean ± SEM, read-out: growth inhibition percentage of PC-3
Text: MTT method was done as described above.

[4] = system: OVCAR-3; assay: NCI anticancer screening, Ovarian Cancer OVCAR-3; assay type: cell-based; settings: Homo sapiens; OVCAR-3, 10 μM; read-out: % Growth Inhibition (GI %)
Text: as §1

[5] = system: T-47D; assay: NCI anticancer screening, Breast Cancer T-47D; assay type: cell-based; settings: Homo sapiens, T47D, read-out: % Growth Inhibition (GI %)
Text: as §1

[6] = system: MOLT-4; assay: NCI anticancer screening, Leukemia MOLT-4; assay type: cell-based; settings: Homo sapiens; MOLT-4, 10 μM; read-out: % Growth Inhibition (GI %)
Text: as §1

[7] = system: U251; assay: NCI anticancer screening, CNS Cancer U251; assay type: cell-based; settings: Homo sapiens, U-251; U251, 10 μM; read-out: % Growth Inhibition (GI %)
Text: as §1

[8] = system: UACC-62; assay: NCI anticancer screening, Melanoma UACC-62; assay type: cell-based; settings: Homo sapiens; UACC-62, 10 μM; read-out: % Growth Inhibition (GI %)
Text: as §1

[9] = system: SK-MEL-2; assay: NCI anticancer screening, Melanoma SK-MEL-2; assay type: cell-based; settings: Homo sapiens; SK-MEL-2, 10 μM; read-out: % Growth Inhibition (GI %)
Text: as §1

[10] = system: NCI-H460; assay: NCI anticancer screening, Non-Small Cell Lung Cancer NCI-H460; assay type: cell-based; settings: Homo sapiens; NCI-H460, 10 μM; read-out: % Growth Inhibition (GI %)
Text: as §1

[11] = system: KM12; assay: NCI anticancer screening, Colon Cancer KM12; assay type: cell-based; settings: Homo sapiens; KM12, 10 μM; read-out: % Growth Inhibition (GI %)
Text: as §1

[12] = system: M14; assay: NCI anticancer screening, Melanoma M14; assay type: cell-based; settings: Homo sapiens; M14, 10 μM; read-out: % Growth Inhibition (GI %)
Text: as §1

[13] = system: HOP-62; assay: NCI anticancer screening, Non-Small Cell Lung Cancer HOP-62; assay type: cell-based; settings: Homo sapiens; HOP-62, 10 μM; read-out: % Growth Inhibition (GI %)
Text: as §1

[14] = system: MDA-MB-468; assay: NCI anticancer screening, Breast Cancer MDA-MB-468; assay type: cell-based; settings: Homo sapiens, read-out: % Growth Inhibition (GI %)
Text: as §1

[15] = system: NCI-H322M; assay: NCI anticancer screening, Non-Small Cell Lung Cancer NCI-H322M; assay type: cell-based; settings: Homo sapiens, read-out: % Growth Inhibition (GI %)
Text: as §1

[16] = system: MCF7; assay: NCI anticancer screening, Breast Cancer MCF7; assay type: cell-based; settings: Homo sapiens; MCF7, 10 μM; read-out: % Growth Inhibition (GI %)
Text: as §1

[17] = system: K-562; assay: NCI anticancer screening, Leukemia K-562; assay type: cell-based; settings: Homo sapiens, K562; K-562, 10 μM; read-out: % Growth Inhibition (GI %)
Text: as §1

[18] = system: CAKI-1; assay: NCI anticancer screening, Renal Cancer CAKI-1; assay type: cell-based; settings: Homo sapiens; CAKI-1, 10 μM; read-out: % Growth Inhibition (GI %)
Text: as §1

[19] = system: MDA-MB 231 cells; settings: for inhibition: 5 µM
Method: Anticancer effect of the above-mentioned compounds was assayed using three human cancer cell lines. Triple negative breast cancer cell line (MDA-MB 231) and prostate cancer cell line (PC3) were cultured in DMEM (Lonza, USA) supplemented with 10% FBS. All cancer cells (4x10^3 cells/well) were seeded in sterile 96-well plates. After 24h, serial concentrations of the tested compounds were incubated with three cancer cell lines for 72 h at 37 °C in 5% CO2 incubator. […] The half maximal inhibitory concentration (IC50) values were calculated using the Graphpad Instat software.

[20] = system: EKVX; assay: NCI anticancer screening, Non-Small Cell Lung Cancer EKVX; assay type: cell-based; settings: Homo sapiens, read-out: % Growth Inhibition (GI %)
Text: as §1

[21] = system: HCC-2998; assay: NCI anticancer screening, Colon Cancer HCC-2998; assay type: cell-based; settings: Homo sapiens; HCC-2998, 10 μM; read-out: % Growth Inhibition (GI %)
Text: as §1

[22] = system: 786-0; assay: NCI anticancer screening, Renal Cancer 786-0; assay type: cell-based; settings: Homo sapiens; 786-0, 10 μM; read-out: % Growth Inhibition (GI %)
Text: as §1

[23] = system: NCI-H522; assay: NCI anticancer screening, Non-Small Cell Lung Cancer NCI-H522; assay type: cell-based; settings: Homo sapiens; NCI-H522, 10 μM; read-out: % Growth Inhibition (GI %)
Text: as §1

[24] = system: SF-295; assay: NCI anticancer screening, CNS Cancer SF-295; assay type: cell-based; settings: Homo sapiens; SF-295, 10 μM; read-out: % Growth Inhibition (GI %)
Text: as §1

[25] = system: SN12C; assay: NCI anticancer screening, Renal Cancer SN12C; assay type: cell-based; settings: Homo sapiens, read-out: % Growth Inhibition (GI %)
Text: as §1

[26] = system: CCRF-CEM; assay: NCI anticancer screening, Leukemia CCRF-CEM; assay type: cell-based; settings: Homo sapiens, read-out: % Growth Inhibition (GI %)
Text: as §1

[27] = system: SF-268; assay: NCI anticancer screening, CNS Cancer SF-268; assay type: cell-based; settings: Homo sapiens; SF-268, 10 μM; read-out: % Growth Inhibition (GI %)
Text: as §1

[28] = system: TK-10; assay: NCI anticancer screening, Renal Cancer TK-10; assay type: cell-based; settings: Homo sapiens; TK-10, 10 μM; read-out: % Growth Inhibition (GI %)
Text: as §1

[29] = system: SNB-19; assay: NCI anticancer screening, CNS Cancer SNB-19; assay type: cell-based; settings: Homo sapiens; SNB-19, 10 μM; read-out: % Growth Inhibition (GI %)
Text: as §1

[30] = system: HOP-92; assay: NCI anticancer screening, Non-Small Cell Lung Cancer HOP-92; assay type: cell-based; settings: Homo sapiens; HOP-92, 10 μM; read-out: % Growth Inhibition (GI %)
Text: as §1

[31] = system: HCT-15; assay: NCI anticancer screening, Colon Cancer HCT-15; assay type: cell-based; settings: Homo sapiens; HCT-15, 10 μM; read-out: % Growth Inhibition (GI %)
Text: as §1

[32] = system: SW-620; assay: NCI anticancer screening, Colon Cancer SW-620; assay type: cell-based; settings: Homo sapiens; SW-620, 10 μM; read-out: % Growth Inhibition (GI %)
Text: as §1

[33] = system: A549/ATCC; assay: NCI anticancer screening, Non-Small Cell Lung Cancer A549/ATCC; assay type: cell-based; settings: Homo sapiens, read-out: % Growth Inhibition (GI %)
Text: as §1

[34] = system: OVCAR-5; assay: NCI anticancer screening, Ovarian Cancer OVCAR-5; assay type: cell-based; settings: Homo sapiens; OVCAR-5, 10 μM; read-out: % Growth Inhibition (GI %)
Text: as §1

[35] = system: SR; assay: NCI anticancer screening, Leukemia SR; assay type: cell-based; settings: Homo sapiens, read-out: % Growth Inhibition (GI %)
Text: as §1

[36] = system: BT-549; assay: NCI anticancer screening, Breast Cancer BT-549; assay type: cell-based; settings: Homo sapiens; BT-549, 10 μM; read-out: % Growth Inhibition (GI %)
Text: as §1

[37] = system: SNB-75; assay: NCI anticancer screening, CNS Cancer SNB-75; assay type: cell-based; settings: Homo sapiens; SNB-75, 10 μM; read-out: % Growth Inhibition (GI %)
Text: as §1

| Structure (SMILES) | inhibition at 10 µM [1] | inhibition at 10 µM [2] | inhibition at 5 µM [3] | inhibition at 10 µM [4] | inhibition at 10 µM [5] | inhibition at 10 µM [6] | inhibition at 10 µM [7] | inhibition at 10 µM [8] | inhibition at 10 µM [9] | inhibition at 10 µM [10] | inhibition at 10 µM [11] | inhibition at 10 µM [12] | inhibition at 10 µM [13] | inhibition at 10 µM [14] | inhibition at 10 µM [15] | inhibition at 10 µM [16] | inhibition at 10 µM [17] | inhibition at 10 µM [18] | IC50 [19] | inhibition [19] | also measured |
| --- | --- | --- | --- | --- | --- | --- | --- | --- | --- | --- | --- | --- | --- | --- | --- | --- | --- | --- | --- | --- | --- |
| O=C(c1nc2ccccc2[nH]1)[C@H]1[C@H](c2cccs2)C2CSCN2[C@]12C(=O)Nc1ccccc12 (stereo partly drawn) [Compound 6e, (3S,6′R)-6'-(1H-Benzo [d]imidazole-2-carbonyl)-7'-(thiophen-2-yl)-3′,6′,7′,7a′-tetrahydro-1′H-spiro [indoline-3.5′-pyrrolo [1,2-c]thiazol]-2-one] | 105% | 94.1% | 58.2 ± 0.729% | 105% | 90.5% | 96.1% | 100% | 90.8% | 111% | 101% | 98.8% | 100% | 99.5% | 100% | 97.7% | 94.5% | 100% | 89.6% | 5.61 µM | 58.2 ± 1.85% | melting point: 240 to 242 °C; inhibition at 10 µM [20]: 100%; inhibition at 10 µM [21]: 108%; inhibition at 10 µM [22]: 100%; inhibition at 10 µM [23]: 91.5%; inhibition at 10 µM [24]: 92.6%; inhibition at 10 µM [25]: 97.5%; inhibition at 10 µM [26]: 104%; inhibition at 10 µM [27]: 92.4%; inhibition at 10 µM [28]: 106%; inhibition at 10 µM [29]: 104%; inhibition at 10 µM [30]: 105%; inhibition at 10 µM [31]: 100%; inhibition at 10 µM [32]: 96.7%; inhibition at 10 µM [33]: 87.1%; inhibition at 10 µM [34]: 96.2%; inhibition at 10 µM [35]: 101%; inhibition at 10 µM [36]: 94.1%; inhibition at 10 µM [37]: 85.9% |
| O=C(c1nc2ccccc2[nH]1)[C@H]1[C@H](c2ccc(F)cc2)C2CSCN2[C@]12C(=O)Nc1ccccc12 (stereo partly drawn) [Compound 6f, (3S,6′R)-6'-(1H-Benzo [d]imidazole-2-carbonyl)-7'-(4-fluorophenyl)-3′,6′,7′,7a′-tetrahydro-1′H-spiro [indoline-3.5′-pyrrolo [1,2-c]thiazol]-2-one] | 102% | 93.1% | 46 ± 0.833% | 101% | 84.1% | 83.6% | 93.5% | 78.1% | 102% | 88.9% | 88.7% | 94.5% | 104% | 94.2% | 90.4% | 87.4% | 87.4% | 90% | 4.41 ± 0.448 µM | 44.9 ± 3.59% | melting point: 233 to 235 °C; inhibition at 10 µM [20]: 93.8%; inhibition at 10 µM [21]: 97%; inhibition at 10 µM [22]: 99%; inhibition at 10 µM [23]: 79.5%; inhibition at 10 µM [24]: 77.9%; inhibition at 10 µM [25]: 91.1%; inhibition at 10 µM [26]: 98.2%; inhibition at 10 µM [27]: 96.3%; inhibition at 10 µM [28]: 101%; inhibition at 10 µM [29]: 95.9%; inhibition at 10 µM [30]: 112%; inhibition at 10 µM [31]: 93.6%; inhibition at 10 µM [32]: 91.1%; inhibition at 10 µM [33]: 78.6%; inhibition at 10 µM [34]: 100%; inhibition at 10 µM [35]: 81.3%; inhibition at 10 µM [36]: 97.4%; inhibition at 10 µM [37]: 89.8% |
